Data on 2 molecules can be found in patent US20070031872A1, “A141S and G399S mutation in the Omi/HtrA2 protein in Parkinson's disease” (priority 2004, published 2007).

Common to all, as to type: cell-based
Experiment [1] deals with HEK293 cells which expressed the exon 7, i.e. the G1195A, mutation (G399S) of Omi/HtrA2. The experiment in a line: Cytotoxicity test (LDH release) using staurosporin. The following applies: 0.5 μM staurosporin, 6 hours; G399S cells vs wild-type HEK293 cells; FIG. 7. The procedure:
(§1) In order to analyze the pathogenetic relevance of the two mutations found in the Omi/HtrA2 gene, the cytotoxicity test was used to investigate whether cells which express the correspondingly genetically modified Omi/HtrA2 protein are more sensitive to cytotoxins, i.e. undergo apoptosis more frequently with corresponding exposure.
(§2) This test was carried out using the cytotoxicity detection kit (LDH) supplied by Roche. The measure of apoptosis used in this case is the lactate dehydrogenase (LDH) released from the cytosol of the apoptotic cells into the surrounding medium after contact with the toxins. This LDH in turn is determined via conversion of a tetrazolium salt into formazan, which can be measured through a change in color from yellow (tetrazolium salt) to red (formazan) using an ELISA reader at a wavelength of 490 nm. The absorption at 650 nm is measured as reference comparison. […]
(§3) In order to detect the total amount of LDH, which is related to the total number of cells per well, then 50 μl of 10% Triton X-100 solution were pipetted into each well in order to lyse the cells which were still alive. […] 100 μl of LDH assay medium were then put in each well to be measured of the 96-well plate and incubated at room temperature for 20 minutes.
(§4) After this incubation time had elapsed, the reaction was stopped by adding 50 μl of 1 N HCl (Sigma) and measured using the ELISA reader. […]
Background: LDH in the medium is a marker of cell lysis.

For experiment [2], the system named is SH-SY5Y cells which stably express mutated (S141 or S399) Omi/HtrA2. The experiment can be described thus: Mitochondrion function test: mitochondrial membrane potential by JC-1 FACS analysis. The following applies: 0.5 μM staurosporin, 4 hours, FIG. 9. The procedure: The mitochondrial membrane potential was measured by FACS analysis (flow cytometer) using JC-1, as marker of mitochondrial homeostasis in SH-SY5Y cells which stably express the wild-type or mutated (S141 or S399) Omi/HtrA2.
JC-1 is a green fluorescent dye which can be employed to measure the mitochondrial membrane potential. It has the property of diffusing through cellular membranes and is moreover in the form of a monomer which fluoresces green on excitation with a 488 nm laser. In intact mitochondria there is accumulation of the dye owing to the mitochondrial membrane potential, and thus JC-1 aggregates form. The aggregate now re-emits in a red fluorescent wavelength the excitation light and can thus be clearly distinguished both under a microscope and in a flow cytometer from the green fluorescent monomers. […]
In order to differentiate the cell population between green and red fluorescence and to make the adjustment in the flow cytometer, cells without JC-1, with JC-1 and cells with JC-1 treated with CCCP were used. […] It was thus possible after the staining readily to excite only the green fluorescence of the JC-1 monomers, owing to treatment with CCCP. After adjustment of the assay in the flow cytometer, the samples were then measured and evaluated. […]
A general note: Flow cytometry measures light scatter and fluorescence of single cells or particles in a stream.

Experiment [3] concerns HEK293 cells which expressed the exon 1, i.e. G421T, mutation (A141S) of Omi/HtrA2. The experiment in a line: Cytotoxicity test (LDH release) using MG132. Conditions: 3.0 μM MG132, 24 hours; A141S cells vs wild-type HEK293 cells; FIG. 8. The protocol:
as §1, §2, §3, §4

Peptide text beside a SMILES is read from it. * marks the point of attachment. Cbz = O=C(OCc1ccccc1)*

For `CN[C@@H]1C[C@H]2O[C@@](C)([C@@H]1OC)n1c3ccccc3c3c4c(c5c6ccccc6n2c5c31)C(=O)NC4` [staurosporin], in experiment [1], the “sensitivity to staurosporin relative to wild-type HEK293 cells (LDH release, proportion of dead cells)” value is reported as “more than five times more sensitive”. Moreover, the “decline in the mitochondrial membrane potential (ΔΨm loss) compared with wild-type cells” value in experiment [2] (Omi/HtrA2 S141 cells) and in experiment [2] (Omi/HtrA2 S399 cells) was “distinct decline in the mitochondrial membrane potential” each time.
As for `CC(C)C[C@@H](C=O)NC(=O)[C@H](CC(C)C)NC(=O)[C@H](CC(C)C)NC(=O)OCc1ccccc1` [MG132] (Cbz-Leu-Leu-Leu-aldehyde), the “sensitivity to MG132 relative to wild-type HEK293 cells (LDH release, proportion of dead cells)” value in experiment [3] was “approximately 1.4 times”.
